Laboratory results from patent US20120315283A1, “METHODS OF PROMOTING TISSUE GROWTH AND TISSUE REGENERATION” (DANA-FARBER CANCER INSTITUTE, INC., priority 2010, published 2012).
Entries after “also recorded” stand apart in the source; their conditions may differ.

Assays:
[1] = test system: Lewis lung carcinoma (LLC); assay: Spontaneous LLC metastasis model (primary tumor resection); type: in vivo, mouse; settings: for spontaneous LLC lung metastasis / spontaneous LLC liver, kidney and lymph node metastasis: after LLC resection, 12 days, t-AUCB and TUPS 10 mg/kg/day; for spontaneous LLC lung metastasis: 14,15-EET and 14,15-DHET 15 μg/kg/day; for spontaneous LLC liver, kidney and lymph node metastasis: 14,15-EET 15 μg/kg/day, vehicle-treated mice do not develop liver metastasis; for 14,15-EET-induced spontaneous LLC (lung) metastasis: EET antagonist 0.21 mg/mouse co-administered with 14,15-EET 15 μg/kg/day following LLC resection, day 12
Text: The role of non-cell autonomous effects of endothelial-derived EETs in tumor metastasis was unknown.

[2] = test system: Lewis lung carcinoma (LLC); assay: Primary LLC tumor growth; type: in vivo, mouse; settings: for primary LLC tumor growth: systemic, 14,15-EET 15 μg/kg/day minipump, t-AUCB in LLC-GFP tumors, 13 days of treatment, 14,15-EEZE 0.21 mg/mouse, established tumors
[3] = test system: B16F10 tumor cells; assay: In vitro tumor cell production of VEGF, B16F10; type: cell-based, mouse; settings: 14,15-EET
[4] = test system: mice; assay: Liver regeneration following partial hepatectomy; type: in vivo, mouse; settings: day 4 following partial hepatectomy, 14,15-EET 15 μg/kg/day via minipump, TUPS 10 mg/kg/day; for liver regeneration: vs vehicle/control; for increase in liver regeneration (liver/body weight ratio): vs vehicle
Text: There were no significant differences in liver/body weight ratio at baseline or following sham operation (FIG. 6D). […] Endothelial cell proliferation was increased in the Tie2-CYP2C8-Tr mice when compared to WT mice (FIG. 6D).

[5] = test system: VEGF production; assay: β-galactosidase staining of LLC tumors in VEGF-LacZ-Tr mice; type: in vivo, mouse; settings: systemic 14,15-EET 15 μg/kg/day, absent in non-treated size-matched tumors
Text: However, analysis of LLC tumors in VEGF-LacZ-Tr mice in which the LacZ reporter was introduced into the VEGF locus (A. S. Maharaj, M. Saint-Geniez, A. E. Maldonado, P. A. D'Amore, Am J Pathol 168, 639 2006).

[6] = test system: LLC tumor cells; assay: In vitro tumor cell production of VEGF, LLC; type: cell-based, mouse; settings: 14,15-EET
[7] = test system: mice; assay: Endometriosis (ectopically implanted uterine tissue); type: in vivo, mouse; settings: systemic 14,15-EET 15 μg/kg/day via minipump
[8] = test system: LLC tumor cells; assay: Tumor cell (LLC) migration; type: cell-based, mouse; settings: 14,15-EEZE
[9] = test system: endothelial cells; assay: Endothelial cell migration; type: cell-based
[10] = test system: mice; assay: Lung growth following left pneumonectomy; type: in vivo, mouse; settings: day 4 post left pneumonectomy, vs vehicle-treated mice, p<0.05
Text: As shown herein, epoxyeicosatrienoic acids (EETs) stimulate angiogenesis, in part via the VEGF signaling network. Since compensated lung growth is dependent on VEGF-induced angiogenesis, it was hypothesized that endothelial cells (ECs) stimulate lung growth via production of EETs. To confirm the effects of CYP2C8 overexpression, EET levels were increased by inhibition of soluble epoxide hydrolase (sEH) following left penumonectomy. […] In contrast, there was no significant change in baseline lung volume/body weight ratio after sham operation.
As shown herein, epoxyeicosatrienoic acids (EETs) stimulate angiogenesis, in part via the VEGF signaling network. Since compensated lung growth is dependent on VEGF-induced angiogenesis, it was hypothesized that endothelial cells (ECs) stimulate lung growth via production of EETs. Transgenic (Tg) mice with EC-specific overexpression of CYP2C8 (Tie2 promoter-driven) were used to study the consequence of increased EETs on lung growth following left pneumonectomy. To confirm the effects of CYP2C8 overexpression, EET levels were increased by inhibition of soluble epoxide hydrolase (sEH). EC-specific overexpression of CYP2C8 promoted contralateral lung growth following unilateral pneumectomy. Lung volume/body weight on day 4 post-pneumonectomy were increased by 23% (p<0.001) in Tg mice compared to WT mice (FIG. 12). […]

[11] = test system: B16F10 melanoma; assay: Spontaneous B16F10 metastasis after primary tumor resection; type: in vivo, mouse; settings: 21 days of treatment post B16F10 resection, 10 mg/kg/day
[12] = test system: mice; assay: Wound healing (ear punch wound assay); type: in vivo, mouse; settings: systemic TUPS 10 mg/kg/day, day 4, vs vehicle
Text: In one embodiment, a full-thickness wound is effected by removing a section of skin (e.g., 1.5 mm diameter) from the dorsal surface (e.g., back) of an anesthetized animal by e.g., surgical incision. If so desired, the section of skin to be wounded can be pre-treated with a candidate pro-angiogenic factor prior to wound induction by e.g., subcutaneous injection. Alternatively, the wound can be treated using a candidate pro-angiogenic factor coincident with or immediately following wounding using methods known to one of skill in the art. The size, area, rate of healing, contraction and histology of the wound are assessed at different time points by methods known to those of skill in the art. The wound size of an animal is assessed by measuring the unclosed wound area compared to the original wound area. Wound healing can be expressed as either percent wound closure or percent wound closure rate. Wounds can be harvested at different time points by euthanizing the animal and removing a section of skin surrounding the wound site for histological analysis if so desired.
An ear punch model can also be used to assess rates of angiogenesis or wound healing, in a design similar to that for the full thickness dorsal back skin assay. The model consists of wounding the ear of an animal using a circular punch of a standard size (e.g., 2.25 mm). […]

[13] = TSP1 null mice, 14,15-EEZE 0.21 mg/mouse

Structure (SMILES): CCCCCC(O)C(O)C/C=C\C/C=C\C/C=C\CCCC(=O)O (centres unmarked) [14,15-DHET]
- spontaneous LLC lung metastasis [1]: has no effect relative to control; also recorded: does not stimulate metastasis

Structure (SMILES): CCCCCC1OC1C/C=C\C/C=C\C/C=C\CCCC(=O)O (centres unmarked) [14,15-EET]
- increase in the number of surface lung metastases ([1]; WT mice, 14,15-EET via osmotic mini-pumps at time of LLC resection, 12 days after resection, vs vehicle): 3 fold
- spontaneous LLC liver, kidney and lymph node metastasis [1]: induction of liver, kidney and distant lymph node metastasis; also recorded: increases spontaneous LLC lung metastasis and distant femoral lymph node metastasis
- spontaneous LLC lung metastasis [1]: increases spontaneous lung and distant femoral lymph node metastasis; also recorded: increases spontaneous LLC lung metastasis
- primary LLC tumor growth [2]: significantly accelerated primary LLC tumor growth; also recorded: increases primary LLC tumor growth
- VEGF production by B16F10 tumor cells in vitro [3]: no significant effect
- liver regeneration [4]: stimulates liver regeneration
- increase in liver regeneration (liver/body weight ratio) [4]: 21%
- β-galactosidase staining (marker of VEGF production) in tumor endothelium and stromal fibroblasts [5]: show β-galactosidase staining; also recorded: stained positively
- VEGF production by LLC tumor cells in vitro [6]: no significant effect
- increase in endometriosis ([7]; WT mice, day 6, vs vehicle): 254%
- endometriosis ([7]; day 6, percent of lesions established and area of established lesions): endometriosis is stimulated

Structure (SMILES): CCCCCC1OC1CCCCCCCC=CCCCC(=O)NS(C)(=O)=O (centres unmarked) [14,15-EEZE-mSI]
- 14,15-EET-induced spontaneous LLC (lung) metastasis [1]: inhibits lung metastasis induced by 14,15-EET; also recorded: inhibits 14,15-EET- (15 μg/kg/day) induced spontaneous LLC metastasis

Structure (SMILES): CCCCCC1OC1CCCCCCC/C=C\CCCC(=O)O (centres unmarked) [14,15-EEZE]
- 14,15-EET-induced spontaneous LLC (lung) metastasis [1]: reduced lung metastasis
- 14,15-EET-induced macroscopic liver and lymph node metastasis ([1]; EET antagonist co-administered with 14,15-EET following LLC resection): prevented macroscopic liver and lymph node metastasis
- survival ([1]; LLC resection metastasis model, 14,15-EEZE 0.21 mg/mouse): prolongs survival
- plasma VEGF levels ([1]; spontaneous LLC lung metastasis model, 14,15-EEZE 0.21 mg/mouse): reduces plasma VEGF levels
- migration of LLC tumor cells [8]: no significant effect; also recorded: not tumor cell (LLC) migration
- primary LLC tumor growth in TSP1 null mice [2, 13]: does not significantly inhibit primary LLC tumor growth
- tumor suppression by the EET antagonist [2, 13]: 24%
- tumor suppression by the EET antagonist ([2]; WT mice, 14,15-EEZE 0.21 mg/mouse): 62%
- primary LLC tumor growth [2]: reduced primary LLC growth; also recorded: inhibits primary LLC growth
- endothelial cell migration (VEGF-induced), inhibition ([9]; 14,15-EEZE, dose-dependent): inhibited endothelial migration in a dose-dependent fashion; also recorded: inhibits VEGF-induced endothelial cell

Structure (SMILES): CS(=O)(=O)N1CCC(NC(=O)Nc2ccc(OC(F)(F)F)cc2)CC1 [TUPS, 1-(1-methanesulfonyl-piperidin-4-yl)-3-(4-trifluoromethoxy-phenyl)-urea]
- spontaneous LLC liver, kidney and lymph node metastasis [1]: induces spontaneous liver metastasis; also recorded: dramatically stimulated; also recorded: increase liver metastasis
- spontaneous LLC lung metastasis [1]: dramatically stimulated
- lung growth/body weight (lung regeneration) [10]: increase in lung regeneration; also recorded: stimulated lung growth/body weight
- liver regeneration [4]: increases liver regeneration
- increase in liver regeneration (liver/body weight ratio) [4]: 38%
- VEGF-mediated endothelial migration ([9]; VEGF-mediated): stimulate VEGF-mediated endothelial migration
- basal endothelial migration ([9]; basal, without VEGF): no significant effects
- spontaneous B16F10 axillary lymph node metastasis [11]: dramatically stimulated; also recorded: increase spontaneous B16F10 axillary lymph node metastasis
- wound healing [12]: accelerates wound healing; also recorded: significantly accelerated wound healing
